# Assays:
# Format in all cases: physicochemical
# Boiling point = test: Boiling point
# [1] = Test 2: long-term stability test, resin 1; set-up: key: ⊚: homogeneous solution; ◯: no separation, but solution was partially heterogeneous (still can be used); Δ: slight separation was confirmed; X: complete separation or sedimentation was confirmed; details: 5 mass % in resin 1, one week at 40° C.
# Protocol: (§1) Inventive Products 1 to 14 and Comparative Products 1 to 11 were each compounded at 5 mass % with the test emulsion resins, 80 ml of each product obtained was introduced by 80 ml into a 100-ml screw pipe, closed with a lid and allowed to stay for a week in a thermostat at 40° C. The external appearance of the emulsion resins thereafter was determined according to the following criteria. • ⊚: homogeneous solution • ◯: no separation, but solution was partially heterogeneous (still can be used) • Δ: slight separation was confirmed • X: complete separation or sedimentation was confirmed <Test 3: Water Solubility Confirmation Test>
# [2] = Test 2: long-term stability test, resin 2; set-up: key: ⊚: homogeneous solution; ◯: no separation, but solution was partially heterogeneous (still can be used); Δ: slight separation was confirmed; X: complete separation or sedimentation was confirmed; details: 5 mass % in resin 2, one week at 40° C.
# Protocol: as §1
smiles,measurement,setting,value
"CCCCOCCO [Comparative Product 10, butyl cellosolve]",boiling point,Boiling point,171 °C
same,"Test 2: long-term stability, external appearance",[1],⊚
same,"Test 2: long-term stability, external appearance",[2],⊚
"CN1CCCC1=O [Comparative Product 11, N-methylpyrrolidone]",boiling point,Boiling point,202 °C
same,"Test 2: long-term stability, external appearance",[1],⊚
same,"Test 2: long-term stability, external appearance",[2],⊚
